# Like-named read-outs stand apart in the source and are kept apart here.
# Experiments:
# [1] = system: MAMMARY ADENOCARCINOMA 16/C; type: in vivo, murine; conditions: C3H/HeN female mice
# Description: (§1) Inhibition of tumors transplanted into mice is an accepted procedure for studying the efficacy of antitumor agents (Corbett, et al., In vivo Methods for Screening and Preclinical Testing; Use of rodent solid tumors for drug discovery., In: Anticancer Drug Development Guide: Preclinical Screening, Clinical Trials, and Approval, B. Teicher (ed), Humana Press Inc., Totowa, N.J., Chapter 5, pages 75-99 (1997); (Corbett, et al., Int. J. Pharmacog., 33, Supplement, 102-122 (1995)). Murine tumors or human xenographs were implanted essentially as described by Corbett in In vivo Methods for Screening and Preclinical Testing; Use of rodent solid tumors for drug discovery. Briefly, the murine tumor or human xenograph was implanted subcutaneously using either 12-gauge trocar implants or counted number of cells. The location for the trocar insertion is midway between the axillary and inguinal region along the side of the mouse. The trocar is slipped approximately ¾ of an inch subcutaneously up toward the axilla before discharging the tumor fragment, and pinching the skin as the trocar is removed. Alternatively, human tumor cells prepared from a […] of donor tumors (5×10^6 cells) were implanted subcutaneously in a hind-leg of a male or female nude mouse (Charles River). Either a test compound in vehicle or vehicle alone was administered by intravenous bolus injection (iv), intraperitoneal injection (ip), or oral gavage (po). Each treatment group, as well as a group of untreated control animals, consisted of five animals per group in each experiment. Subcutaneous tumor response was monitored by tumor volume measurement performed twice each week over the course of the experiment (60-120 days). Body weights were taken as a general measure of toxicity. The subcutaneous tumor data were analyzed by determining the median tumor weight for each treatment group over the course of the experiment and calculating the tumor growth delay as the difference in days for the treatment versus the control tumors to reach a volume of either 500 or 1000 mm^3.
# (§2) Cryptophycin-309 (309) was tested against a variety of murine and human tumors substantially as described supra. Cryptophycin-55 glycinate (55-GLY), Taxol, and Adriamycin (Adria) were also included in certain tests for purposes of comparison. Cryptophycin 55 glycinate is known in the art (WO 98/08505, Example 9) and has the following structure: [drawing 9]
# (§3) Tumor Weight(mg)=(a×b^2)/2 where a=tumor length (mm) and b=tumor width (mm).
# (§4) Tumor Growth Delay=T−C where T is the median time (days) required for the treatment group tumors to reach a predetermined size, and C is the median time (days) for the control group tumors to reach the same size. Tumor-free survivors are excluded from this calculation, and are tabulated separately (Tumor Free).
# (§5) Log Kill=Tumor Growth Delay/(3.32)(Td)
# (§6) where Tumor Growth Delay is as previously defined and Td is tumor volume doubling time (days), estimated from the best fit straight line from a log-linear growth plot of the control group of tumors in exponential growth (100-800 mg range)
# (§7) %T/C mass—The treatment and control groups are measured when the control group tumors reach approximately 700 to 1200 mg in size (median group). The median tumor weight of each group is determined (including zeros). The T/C value in percent is an indication of antitumor effectiveness. A T/C≦42% is considered significant antitumor activity. A T/C<10% is considered to indicate highly significant antitumor activity.
# (§8) Body Weight Loss Nadir—A body weight loss nadir (mean of group) of greater than 20% or drug deaths greater than 20% are considered to indicate an excessively toxic dosage in single course trials.
# (§9) Activity Rating—the Activity Rating is derived from the Log Kill according to the following table: […]
# [2] = system: MAMMARY ADENOCARCINOMA-17/ADR/Resist.; type: in vivo, murine; conditions: C3H female mice
# Description: as §1, §2, §3, §4, §5, §6, §7, §8, §9
# [3] = system: PANCREATIC DUCTAL ADENOCARCINOMA #02; type: in vivo, murine; conditions: BDF1 female mice
# Description: as §1, §2, §3, §4, §5, §6, §7, §8, §9
# [4] = system: MAMMARY ADENOCARCINOMA-16/C/Adr; experiment: Early stage murine mammary adenocarcinoma-16/C/Adr subcutaneous tumor assay; type: in vivo; conditions: C3H female mice
# Description: as §1, §2, §3, §4, §5, §6, §7, §8, §9
# [5] = system: HUMAN COLON ADENOCARCINOMA 15; type: in vivo; conditions: Balb/C SCID female mice
# Description: as §1, §2, §3, §4, §5, §6, §7, §8, §9
# [6] = system: HUMAN COLON ADEN[…]-116; experiment: Early stage human colon adenocarcinoma HCT-116 xenograft assay; type: in vivo; conditions: Balb/C SCID female mice
# Description: as §1, §2, §3, §4, §5, §6, §7, §8, §9
# [7] = system: COLON ADENOCARCINOMA-26/A; type: in vivo, murine; conditions: IV 10 mg/kg/inj QD 1-7, 9; total dose 80 mg/kg; Balb/C female mice
# Description: as §1, §2, §3, §4, §5, §6, §7, §8, §9
# [8] = system: COLON ADENOCARCINOMA 51/A; experiment: Early stage murine colon adenocarcinoma 51/A subcutaneous tumor assay; type: in vivo; conditions: IV 10 mg/kg/inj QD 1-8; total dose 80 mg/kg; CDF female mice
# Description: as §1, §2, §3, §4, §5, §6, §7, §8, §9
# [9] = IV 28 mg/kg/inj days 3,5,7,9,11, total dose 140 mg/kg
# [10] = IV 42 mg/kg/inj days 3,5,7,9,11, total dose 210 mg/kg
# [11] = IV 28 mg/kg/inj days 1,3,5,7,9, total dose 140 mg/kg
# [12] = IV 42 mg/kg/inj days 1,3,5,7,9, total dose 210 mg/kg
# [13] = IV 28 mg/kg/inj days 1,3,5,7,9, total dose 140 mg/kg, experiment ##
# [14] = IV 42 mg/kg/inj days 1,3,5,7,9, total dose 210 mg/kg, experiment ##
# [15] = IV 42 mg/kg/inj days 1,3,7,9, total dose 168 mg/kg
# [16] = IV 32 mg/kg/inj twice/day days 3,5,7,9,11, total dose 320 mg/kg
# [17] = IV 8 mg/kg/inj QD 3-11, total dose 72 mg/kg
# [18] = IV 8 mg/kg/inj QD 1-8, total dose 64 mg/kg, experiment #
# [19] = IV 10 mg/kg/inj QD 1-7, total dose 70 mg/kg
# [20] = IV 9.5 mg/kg/inj QD 3-11, total dose 85.5 mg/kg
# [21] = IV 9 mg/kg/inj QD 3-10, total dose 72 mg/kg
smiles,measurement,setting,value
"COc1ccc(C[C@H]2NC(=O)/C=C/C[C@@H]([C@H](C)[C@@H](OC(=O)CN)[C@@H](Cl)c3ccccc3)OC(=O)[C@H](CC(C)C)OC(=O)C(C)(C)CNC2=O)cc1Cl [Cryptophycin 55-GLY, Cryptophycin-55 glycinate]",% T/C MASS,[1]; [9],0%
same,ACTIVITY RATING,[1]; [9],++++ (>2.8)
same,DRUG DEATHS,[1]; [9],0/5
same,GROWTH DELAY,[1]; [9],15 days
same,LOG KILL,[1]; [9],3.5
same,MEDIAN TUMOR WEIGHT,[1]; [9],0 mg
same,% T/C MASS,[1]; [10],0%
same,ACTIVITY RATING,[1]; [10],++++ (>2.8)
same,DRUG DEATHS,[1]; [10],0/5
same,GROWTH DELAY,[1]; [10],17.5 days
same,LOG KILL,[1]; [10],4.1
same,MEDIAN TUMOR WEIGHT,[1]; [10],0 mg
same,% T/C MASS,[2]; [11],24%
same,ACTIVITY RATING,[2]; [11],++ (1.3-1.9)
same,DRUG DEATHS,[2]; [11],0/5
same,GROWTH DELAY,[2]; [11],5.25 days
same,LOG KILL,[2]; [11],1.6
same,MEDIAN TUMOR WEIGHT,[2]; [11],577 mg
same,% T/C MASS,[2]; [12],0%
same,ACTIVITY RATING,[2]; [12],+++ (2.0-2.8)
same,DRUG DEATHS,[2]; [12],0/5
same,GROWTH DELAY,[2]; [12],7.6 days
same,LOG KILL,[2]; [12],2.3
same,MEDIAN TUMOR WEIGHT,[2]; [12],0 mg
same,% T/C MASS,[3]; [13],9%
same,ACTIVITY RATING,[3]; [13],++ (1.3-1.9)
same,DRUG DEATHS,[3]; [13],0/5
same,GROWTH DELAY,[3]; [13],13 days
same,LOG KILL,[3]; [13],1.8
same,MEDIAN TUMOR WEIGHT,[3]; [13],95 mg
same,% T/C MASS,[3]; [14],0%
same,ACTIVITY RATING,[3]; [14],+++ (2.0-2.8)
same,DRUG DEATHS,[3]; [14],0/5
same,GROWTH DELAY,[3]; [14],16 days
same,LOG KILL,[3]; [14],2.2
same,MEDIAN TUMOR WEIGHT,[3]; [14],0 mg
same,% T/C MASS,[4]; [11],24%
same,ACTIVITY RATING,[4]; [11],++ (1.3-1.9)
same,DRUG DEATHS,[4]; [11],0/5
same,GROWTH DELAY,[4]; [11],6.2 days
same,LOG KILL,[4]; [11],1.7
same,MEDIAN TUMOR WEIGHT,[4]; [11],48 mg
same,% T/C MASS,[4]; [15],0%
same,ACTIVITY RATING,[4]; [15],+++ (2.0-2.8)
same,DRUG DEATHS,[4]; [15],0/5
same,GROWTH DELAY,[4]; [15],7.8 days
same,LOG KILL,[4]; [15],2.1
same,MEDIAN TUMOR WEIGHT,[4]; [15],0 mg
same,% T/C MASS,[5]; [9],15%
same,ACTIVITY RATING,[5]; [9],+++ (2.0-2.8)
same,DRUG DEATHS,[5]; [9],0/5
same,GROWTH DELAY,[5]; [9],21.5 days
same,LOG KILL,[5]; [9],2.2
same,MEDIAN TUMOR WEIGHT,[5]; [9],171 mg
same,% T/C MASS,[5]; [16],0%
same,ACTIVITY RATING,[5]; [16],++++ (>2.8)
same,DRUG DEATHS,[5]; [16],0/5
same,GROWTH DELAY,[5]; [16],56 days
same,LOG KILL,[5]; [16],4.0
same,MEDIAN TUMOR WEIGHT,[5]; [16],0 mg
same,% T/C MASS,[5]; [10],5.5%
same,ACTIVITY RATING,[5]; [10],+++ (2.0-2.8)
same,DRUG DEATHS,[5]; [10],0/5
same,GROWTH DELAY,[5]; [10],21.5 days
same,LOG KILL,[5]; [10],2.2
same,MEDIAN TUMOR WEIGHT,[5]; [10],63 mg
same,% T/C MASS,[6]; [9],5.5%
same,ACTIVITY RATING,[6]; [9],+++ (2.0-2.8)
same,DRUG DEATHS,[6]; [9],0/5
same,GROWTH DELAY,[6]; [9],22 days
same,LOG KILL,[6]; [9],2.65
same,MEDIAN TUMOR WEIGHT,[6]; [9],63 mg
same,% T/C MASS,[6]; [16],0%
same,ACTIVITY RATING,[6]; [16],++++ (>2.8)
same,DRUG DEATHS,[6]; [16],0/4
same,GROWTH DELAY,[6]; [16],35 days
same,LOG KILL,[6]; [16],4.2
same,MEDIAN TUMOR WEIGHT,[6]; [16],0 mg
same,% T/C MASS,[6]; [10],0%
same,ACTIVITY RATING,[6]; [10],++++ (>2.8)
same,DRUG DEATHS,[6]; [10],0/5
same,GROWTH DELAY,[6]; [10],25 days
same,LOG KILL,[6]; [10],3.0
same,MEDIAN TUMOR WEIGHT,[6]; [10],0 mg
CC(=O)O[C@H]1C(=O)[C@@]2(C)[C@H]([C@H](OC(=O)c3ccccc3)[C@]3(O)C[C@H](OC(=O)[C@H](O)[C@@H](NC(=O)c4ccccc4)c4ccccc4)C(C)=C1C3(C)C)[C@]1(OC(C)=O)CO[C@@H]1C[C@@H]2O [Taxol],% T/C MASS,[7],57%
same,DRUG DEATHS,[7],0/5
same,LOG KILL,[7],None
same,MEDIAN TUMOR WEIGHT,[7],516 mg
same,% T/C MASS,[1]; [17],0%
same,ACTIVITY RATING,[1]; [17],++++ (>2.8)
same,DRUG DEATHS,[1]; [17],0/5
same,GROWTH DELAY,[1]; [17],12.5 days
same,LOG KILL,[1]; [17],2.9
same,MEDIAN TUMOR WEIGHT,[1]; [17],0 mg
same,% T/C MASS,[3]; [18],79%
same,DRUG DEATHS,[3]; [18],0/5
same,GROWTH DELAY,[3]; [18],1 days
same,LOG KILL,[3]; [18],0.1
same,MEDIAN TUMOR WEIGHT,[3]; [18],1296 mg
same,DRUG DEATHS,[4]; [19],0/5
same,LOG KILL,[4]; [19],None
same,MEDIAN TUMOR WEIGHT,[4]; [19],1198 mg
same,% T/C MASS,[8],25%
same,ACTIVITY RATING,[8],+ (0.7-1.2)
same,DRUG DEATHS,[8],0/6
same,GROWTH DELAY,[8],5.6 days
same,LOG KILL,[8],0.7
same,MEDIAN TUMOR WEIGHT,[8],288 mg
same,% T/C MASS,[5]; [20],67%
same,DRUG DEATHS,[5]; [20],0/5
same,GROWTH DELAY,[5]; [20],3.5 days
same,LOG KILL,[5]; [20],0.4
same,MEDIAN TUMOR WEIGHT,[5]; [20],1044 mg
same,% T/C MASS,[6]; [21],11%
same,ACTIVITY RATING,[6]; [21],+++ (2.0-2.8)
same,DRUG DEATHS,[6]; [21],0/5
same,GROWTH DELAY,[6]; [21],17 days
same,LOG KILL,[6]; [21],2.0
same,MEDIAN TUMOR WEIGHT,[6]; [21],126 mg

# — US6747021B2, “Cryptophycin compound” (Eli Lilly and Company, priority 2000, dated 2004)
